From patent US5447937A, “CNS active tetrahydrobenzothienopyridines” (SmithKline Beecham p.l.c., priority 1991, dated 1995)

Tests used:
Mice = assay: MES Test (maximal electroshock seizure); type: in vivo, mouse; conditions: 100 mg/kg p.o.
Description: The maximal electroshock seizure (MES) test in rodents is one of the most widely used models of human grand mal epilepsy^1. In this model, anticonvulsant agents elevate the threshold to electrically-induced seizures whilst proconvulsants lower the seizure threshold.
Mice (male, Charles River, U.K. CD-1 strain, 25-30 g) are randomly assigned to groups of 10-20 and dosed orally or intraperitoneally at a dose volume of 10 ml/kg with various doses of compound (1-100 mg/kg) or vehicle. Mice are then subjected at 30 or 60 rain post dose to a variable voltage electroshock (0.1 sec., 50 Hz, sine wave form) via a buccal and a subcutaneous electrode. The mean voltage and standard error required to induce a tonic seizure in 50% (CV50) of the mice in the group is determined by the `up and down` method of Dixon and Mood (1948)^2. Statistical comparisons between vehicle- and drug-treated groups are made using the method of Litchfield and Wilcoxon (1949)^3.
If a tonic convulsion does occur, then the voltage is decreased, and so on until all the animals in the group have been tested.
The percentage increase or decrease in CV50 for each group compared to the control is calculated.
Studies are carried out using a Heathkit shock generator with totally variable control of shock level from 0 to 200 V and voltage steps of 5 V are used.
Drugs are suspended in 1% methyl cellulose.

Rats = assay: Geller-Seifter procedure (conflict session, anxiolytic properties); type: in vivo, rat; conditions: FR5 conflict session
Description: 1. Geller-Seifter Procedure
Potential anxiolytic properties have been evaluated using the Geller-Seifter procedure based on that originally described by Geller and Seifter, (1960) Psychopharmacologia, 1,482-492.
Rats are trained on a variable interval 30 sec schedule (VI30) to press a lever in order to obtain food reward. The 5 min sessions of the VI30 schedule alternate with 2-5 min of a schedule (FR5) in which every 5th lever press is followed by presentation of a food pellet paired with a 0.5 sec mild footshock. The total study lasts approximately 30 mins. Rats typically respond with high rates of lever pressing under the VI30 schedule and low response rates under the FR5 `conflict` session. Anxiolytic drugs increase the suppressed response rates of rats in `conflict` session.
Drugs are administered intraperitoneally or orally to groups of 3-8 rats 30 min before testing.
The results are expressed as the percentage increase in square root of the total number of lever presses in the FR5 `conflict` session. Square root transformation is necessary to normalise the data for statistical analysis using parametric methods (ANOVA).

[1] = target: rat cerebral cortex membranes ([35S]-TBPS binding); assay: [35S]-TBPS binding to rat cerebral cortex membranes in vitro; conditions: 2 nM [35S]-TBPS, 5x10^-6 M GABA
Description: 2. [^35 S]-TBPS binding to rat cerebral cortex membranes in vitro
Pooled rat cerebral cortices are homogenised in 20 volumes of 0.32M sucrose and centrifuged at 1000 g for 20 minutes (4° C.). The supernatant is removed and recentrifuged at 50,000 g (4° C., 20 mins). The P2 pellet is then suspended in 20 volumes of Tris citrate buffer (pH 7.1) and centrifuged at 50,000 g (4° C., 20 mins). This washing step is repeated three times and the pellet finally resuspended in 20 volumes of buffer and stored at -70° C. prior to use.
The tissue suspension ([…]) is incubated (25° C., 120 mins) with [^35 S]-TBPS (2 nM) in Tris citrate buffer (pH 7.1) containing 0.2M NaCl and 5×10^-6 M GABA. Non-specific binding is measured in the presence of 10^-4 M picrotoxin. Varying concentrations of test drugs (10^-7, 10^-6, 10^-5 and 10^-4 M final concentration) are added in a volume of […]. The total assay volume is […]. Incubation is stopped by rapid filtration using a Skatron cell harvester and radioactivity measured by liquid scintillation spectrometry. IC50 's are calculated as the concentration of test drug to inhibit 50% of specific binding.

IC50 [1] | Compound | CV50 (voltage inducing tonic seizure in 50% of mice) (Mice) | responding in the 'conflict' session (Rats; 20 mg/kg p.o.) | responding in the 'conflict' session (Rats; 10 mg/kg p.o.)
< 20 µM | CCOC(=O)c1c(C)nc2sc3c(c2c1N)CCC(O)C3 (racemic) [Example 1, (±)-4-Amino-7-hydroxy-2-methyl-5,6,7,8-tetrahydrobenzo[b]thieno[2,3-b]pyridine-3-carboxylic acid, ethyl ester] | significant increase | significant increase | 
< 20 µM | CC#CCOC(=O)c1c(C)nc2sc3c(c2c1N)CCC(O)C3 (racemic) [Example 4, (±)-4-Amino-7-hydroxy-2-methyl-5,6,7,8-tetrahydrobenzo[b]thieno[2,3-b]pyridine-3-carboxylic acid, but-2-ynyl ester] |  | significant increase | 
< 20 µM | Cc1nc2sc3c(c2c(N)c1C(=O)OCC1CCC1)CCC(O)C3 (racemic) [Example 5, (±)-4-Amino-7-hydroxy-2-methyl-5,6,7,8-tetrahydrobenzo[b]thieno[2,3-b]pyridine-3-carboxylic acid, cyclobutylmethyl ester] |  |  | 
< 20 µM | Cc1nc2sc3c(c2c(N)c1C(=O)OCC1CC1)CCC(O)C3 (racemic) [Example 6, (±)-4-Amino-7-hydroxy-2-methyl-5,6,7,8-tetrahydrobenzo[b]thieno[2,3-b]pyridine-3-carboxylic acid, cyclopropylmethyl ester] |  | significant increase | 
< 20 µM | CCOC(=O)c1c(C)nc2sc3c(c2c1N)CCC(O)C3 (single isomer, unassigned; (+)) [Example 3, (+)-4-Amino-7-hydroxy-2-methyl-5,6,7,8-tetrahydrobenzo[b]thieno[2,3-b]pyridine-3-carboxylic acid, ethyl ester] |  |  | 

The remaining lines, values behind:

Compound | IC50 [1] | CV50 (voltage inducing tonic seizure in 50% of mice) (Mice) | responding in the 'conflict' session (Rats; 20 mg/kg p.o.) | responding in the 'conflict' session (Rats; 10 mg/kg p.o.)
COC(=O)c1c(C)nc2sc3c(c2c1N)CCC(O)C3 (racemic) [Example 7, (±)-4-Amino-7-hydroxy-2-methyl-5,6,7,8-tetrahydrobenzo[b]thieno[2,3-b]pyridine-3-carboxylic acid, methyl ester] |  |  | significant increase | 
C#CCOC(=O)c1c(C)nc2sc3c(c2c1N)CCC(O)C3 (racemic) [Example 8, (±)-4-Amino-7-hydroxy-2-methyl-5,6,7,8-tetrahydrobenzo[b]thieno[2,3-b]pyridine-3-carboxylic acid, prop-2-ynyl ester] |  |  |  | significant increase
C#CCCOC(=O)c1c(C)nc2sc3c(c2c1N)CCC(O)C3 (racemic) [Example 9, (±)-4-Amino-7-hydroxy-2-methyl-5,6,7,8-tetrahydrobenzo[b]thieno[2,3-b]pyridine-3-carboxylic acid, but-3-ynyl ester] |  |  |  | significant increase
C=CCCOC(=O)c1c(C)nc2sc3c(c2c1N)CCC(O)C3 (racemic) [Example 10, (±)-4-Amino-7-hydroxy-2-methyl-5,6,7,8-tetrahydrobenzo[b]thieno[2,3-b]pyridine-3-carboxylic acid, but-3-enyl ester] |  |  | significant increase | 
CCOC(=O)c1c(C)nc2sc3c(c2c1N(C)C)CCC(OC)C3 (racemic) [Example 19, (±)-4-Dimethylamino-7-methoxy-2-methyl-5,6,7,8-tetrahydrobenzo[b]thieno[2,3-b]pyridine-3-carboxylic acid, ethyl ester] | < 20 µM |  |  | 
